Read-outs that look alike come from different tables or passages of the source.
Assays:
[1] = tested on: HCT116 MTAP WT cells; test: Proliferation inhibition of HCT116 cells in vitro (CellTiter Glo); type: cell-based; conditions: 6 days, 9 concentrations starting from 30 μM, read-out: Cell proliferation inhibition rate HCT116 MTAP WT IC50 (nm)
From the text: (§1) Biological Test Example 2 Proliferation Inhibition of HCT116 and HCT116 MTAP-KO Cells in Vitro
(§2) HCT116 cell line was purchased from the Chinese Academy of Sciences Cell Bank, and the MTAP gene was knocked out by CRISPR/Cas9 technology to obtain HCT116-MTAP-KO cell line.
(§3) McCoy's 5A medium (Gibco, catalog No. 16600082), fetal bovine serum (Gibco, catalog No. 10099141C), penicillin-streptomycin double antibody (Gibco, catalog No. 15140122), pancreatic enzyme (Gibco, catalog No. 25200056), CellTiter Glo assay kit (Promega, catalog No. G7572), 384-well transparent flat-bottomed black walled cell culture plate (Corning, catalog No. 3764), ultra micro sampler (Tecan, catalog No.D300e), Multimode reader (Biotek, catalog No. SynergyHTX)
(§4) 1. Cell culture: HCT116 and HCT116-MTAP-KO cells were cultured in McCoy'5A medium+10% fetal bovine serum+1% penicillin-streptomycin double antibody; to ensure that they were always in the logarithmic growth phase and the cell viability greater than 95%.
(§5) 2. Compound concentration gradient preparation: The compound to be tested was added to a 384-well plate using an ultra micro sampler, starting from 30 μM (HCT116 cells) or 3 μM (HCT116-MTAP-KO cells), and diluted with DMSO at 3 times for a total of 9 concentrations and set up three duplicate wells.
(§6) 3. Treatment of cells with compounds: Trypsin-digested HCT116 or HCT116-MTAP-KO cell suspension was added to the 384-well plates spotted with the compounds to be tested at 40 μL per well, i.e., 100 cells per well, and the final concentration of DMSO was 0.4%. The cell culture plate was incubated at 37° C. in a 5% CO2 incubator for 6 days.
(§7) 4. Detection: 20 μL of CellTiter Glo reagent was added to each well of the cell culture plate and incubated at room temperature for 30 minutes. A multimode reader was used to detect the luminescence signal at […].
(§8) The data was fitted with GraphPad Prism 8.0 software using a four parameter inhibitor-reaction model to obtain the IC50 value (half inhibitory concentration) of the test compounds.

[2] = tested on: HCT116-MTAP-KO cells (HCT116 MTAP null); test: Proliferation inhibition of HCT116 MTAP-KO cells in vitro (CellTiter Glo); type: cell-based; conditions: 6 days, 9 concentrations starting from 3 μM, read-out: Cell proliferation inhibition rate HCT116 MTAP null IC50 (nm)
From the text: as §1, §2, §3, §4, §5, §6, §7, §8

Structure (SMILES) | IC50 ([1]; Homo sapiens, HCT-116, 144 h) | IC50 ([2]; HCT116-MTAP null, 144 h) | IC50 [1] | IC50 [2]
Cc1ncc2c(N)nc3cc(F)c(C(=O)N(Cc4ccc(C(F)(F)F)cn4)c4cn(C)nc4C(F)(F)F)cc3n12 [Example 178] | 1000 to 10000 nM | < 100 nM | – | –
Cc1cn(C)nc1N(Cc1ccc(C(F)(F)F)cn1)C(=O)c1cc2c(cc1F)nc(N)c1cnc(C)n12 [Example 179] | 1000 to 10000 nM | < 100 nM | – | –
Cc1c(N(Cc2ccc(C(F)(F)F)cn2)C(=O)c2cc3c(cc2F)nc(N)c2cnc(C)n23)cnn1CC(F)F [Example 180] | 1000 to 10000 nM | < 100 nM | – | –
Cc1nn(C)cc1N(Cc1ccc(C(F)(F)F)nc1)C(=O)c1cc2c(cc1F)nc(N)c1cnc(C)n12 [Example 182] | 1000 to 10000 nM | < 100 nM | – | –
Cc1nn(C)cc1N(Cc1ccc(C(F)(F)F)cn1)C(=O)c1cc2c(cn1)nc(N)c1cnc(C)n12 [Example 183] | 1000 to 10000 nM | < 100 nM | – | –
CCc1nn(C)cc1N(Cc1ccc(C(F)(F)F)cn1)C(=O)c1cc2c(cc1F)nc(N)c1c(C)ncn12 [Example 184] | < 100 nM | < 100 nM | – | –
Cc1ccc(N(Cc2ccc(C(F)(F)F)cn2)C(=O)c2cc3c(cc2F)nc(N)c2cnc(C)n23)c(C)n1 [Example 187] | 1000 to 10000 nM | < 100 nM | – | –
Cc1cc2nc(N)c3cnc(C)n3c2cc1C(=O)N(Cc1ccc(C(F)(F)F)cn1)c1cn(C)nc1C [Example 188, 4-Amino-N-(1,3-dimethyl-1H-pyrazol-4-yl)-1,7-dimethyl-N-((5-(trifluoromethyl)pyridin-2-yl)methyl)imidazolo[1,5-a]quinoxalin-8-carboxamide] | 1000 to 10000 nM | < 100 nM | – | –
Cc1nn(C)cc1N(Cc1ccc(OC2CC2)cn1)C(=O)c1cc2c(cn1)nc(N)c1cnc(C)n12 [Example 189] | 100 to 1000 nM | < 100 nM | – | –
Cc1nn(C)cc1N(Cc1ccc(C(F)(F)F)cn1)C(=O)c1ccc2nc(N)c3c(C)nc(C)n3c2c1 [Example 190] | 1000 to 10000 nM | 100 to 1000 nM | – | –
CCn1cc(N(Cc2ccc(C(F)(F)F)cn2)C(=O)c2cc3c(cn2)nc(N)c2cnc(C)n23)c(C)n1 [Example 192] | 1000 to 10000 nM | < 100 nM | – | –
Cc1nn(C)cc1N(Cc1ccc(C(F)(F)F)nn1)C(=O)c1cc2c(cc1F)nc(N)c1c(C)ncn12 [Example 193] | 100 to 1000 nM | < 100 nM | – | –
Cc1cc(C)c(N(Cc2ccc(C(F)(F)F)cn2)C(=O)c2cc3c(cc2F)nc(N)c2cnc(C)n23)cn1 [Example 194] | 1000 to 10000 nM | < 100 nM | – | –
Cc1nn(C)cc1N(Cc1ccc(OC2COC2)cn1)C(=O)c1cc2c(cc1F)nc(N)c1c(C)ncn12 [Example 195] | 100 to 1000 nM | < 100 nM | – | –
Cc1cnc(C)c(N(Cc2ccc(C(F)(F)F)cn2)C(=O)c2cc3c(cc2F)nc(N)c2cnc(C)n23)c1 [Example 196] | 1000 to 10000 nM | < 100 nM | – | –
COc1ccc(CN(C(=O)c2cc3c(cc2F)nc(N)c2c(C)ncn23)c2cn(C)nc2C)nn1 [Example 197] | 100 to 1000 nM | < 100 nM | – | –
CCn1cc(N(Cc2ccc(OC3CC3)cn2)C(=O)c2cc3c(cn2)nc(N)c2cnc(C)n23)c(C)n1 [Example 199] | 1000 to 10000 nM | < 100 nM | – | –
Cc1ncc2c(N)nc3cc(F)c(C(=O)N(Cc4ccc(C(F)(F)F)cn4)c4ccnn4C)cc3n12 [Example 200] | 100 to 1000 nM | < 100 nM | – | –
Cc1ncc2c(N)nc3cc(F)c(C(=O)N(Cc4ccc(C(F)(F)F)cn4)c4c(F)cnn4C)cc3n12 [Example 201] | 100 to 1000 nM | < 100 nM | – | –
CCn1cc(N(Cc2ccc(C(F)(F)F)nn2)C(=O)c2cc3c(cc2F)nc(N)c2cnc(C)n23)c(C)n1 [Example 202] | 1000 to 10000 nM | 100 to 1000 nM | – | –
Cc1nn(C)cc1N(Cc1ncc(C(F)(F)F)s1)C(=O)c1cc2c(cc1F)nc(N)c1cnc(C)n12 [Example 203] | 1000 to 10000 nM | < 100 nM | – | –

Structure (SMILES) | IC50 ([1]; Homo sapiens, HCT-116, 144 h) | IC50 ([2]; HCT116-MTAP null, 144 h) | IC50 [1] | IC50 [2]
Cc1ncc2c(N)nc3cc(F)c(C(=O)N(Cc4ccc(OC5CC5)cn4)c4ccnn4C)cc3n12 [Example 205] | 100 to 1000 nM | < 100 nM | – | –
CCn1nccc1N(Cc1ccc(C(F)(F)F)cn1)C(=O)c1cc2c(cc1F)nc(N)c1cnc(C)n12 [Example 206] | 100 to 1000 nM | < 100 nM | – | –
Cc1ncc2c(N)nc3cc(F)c(C(=O)N(Cc4ccc(F)cn4)c4ccnn4C)cc3n12 [Example 207] | 1000 to 10000 nM | < 100 nM | – | –
Cc1nn(C)cc1N(Cc1ccc(C(F)(F)F)cn1)Cc1cc2c(cc1F)nc(N)c1cnc(C)n12 [Example 208] | 1000 to 10000 nM | < 100 nM | – | –
Cc1ncc2c(N)nc3cc(F)c(C(=O)N(Cc4ccc(C(F)(F)F)cn4)c4cnnn4C)cc3n12 [Example 209] | 1000 to 10000 nM | < 100 nM | – | –
Cc1cn(C)c(N(Cc2ccc(C(F)(F)F)cn2)C(=O)c2cc3c(cc2F)nc(N)c2cnc(C)n23)n1 [Example 210, 4-Amino-N-(1,4-dimethyl-1H-imidazol-2-yl)-7-fluoro-1-methyl-N-((5-(trifluoromethyl)pyridin-2-yl)methyl)imidazolo[1,5-a]quinoxalin-8-carboxamide] | 1000 to 10000 nM | < 100 nM | – | –
Cc1ncc2c(N)nc3cnc(C(=O)N(Cc4ccc(C(F)(F)F)cn4)c4ccnn4C)cc3n12 [Example 211] | 1000 to 10000 nM | < 100 nM | – | –
CCOc1ccc(CN(C(=O)c2cc3c(cc2F)nc(N)c2cnc(C)n23)c2ccnn2C)nc1 [Example 212] | 1000 to 10000 nM | < 100 nM | – | –
Cc1ncc2c(N)nc3cc(F)c(C(=O)N(Cc4cnn(C(F)(F)F)c4)c4ccnn4C)cc3n12 [Example 213] | – | – | 1000 to 10000 nM | < 100 nM
Cc1ccc(CN(C(=O)c2cc3c(cc2F)nc(N)c2cnc(C)n23)c2ccnn2C)nc1 [Example 214] | 1000 to 10000 nM | < 100 nM | – | –
Cc1ncc2c(N)nc3cc(F)c(C(=O)N(Cc4ccc(OC5CC5)nn4)c4ccnn4C)cc3n12 [Example 215] | 1000 to 10000 nM | < 100 nM | – | –
Cc1ncc2c(N)nc3cc(F)c(C(=O)N(Cc4ccc(OC5COC5)cn4)c4ccnn4C)cc3n12 [Example 217] | 1000 to 10000 nM | < 100 nM | – | –
Cc1ncc2c(N)nc3cc(F)c(C(=O)N(Cc4ccc(N5CC(F)(F)C5)cn4)c4ccnn4C)cc3n12 [Example 219] | 1000 to 10000 nM | < 100 nM | – | –
COCCn1cc(CN(C(=O)c2cc3c(cc2F)nc(N)c2cnc(C)n23)c2ccnn2C)cn1 [Example 221] | 1000 to 10000 nM | 100 to 1000 nM | – | –
Cc1ncc2c(N)nc3cc(F)c(C(=O)N(Cc4ccc(C(F)(F)F)nn4)c4ccnn4C)cc3n12 [Example 223] | 1000 to 10000 nM | < 100 nM | – | –
Cc1ncc2c(N)nc3cc(F)c(C(=O)N(Cc4cnn(C5CCOCC5)c4)c4ccnn4C)cc3n12 [Example 227] | 1000 to 10000 nM | 100 to 1000 nM | – | –
Cc1ncc2c(N)nc3cc(F)c(C(=O)N(Cc4ncc(C(F)(F)F)cc4F)c4ccnn4C)cc3n12 [Example 228] | 100 to 1000 nM | < 100 nM | – | –
Cc1ncc2c(N)nc3cc(F)c(C(=O)N(Cc4ccc(S(F)(F)(F)(F)F)cc4)c4ccnn4C)cc3n12 [Example 229] | 100 to 1000 nM | < 100 nM | – | –
Cc1ncc2c(N)nc3cc(F)c(C(=O)N(Cc4cnn(C5COC5)c4)c4ccnn4C)cc3n12 [Example 231] | 1000 to 10000 nM | 100 to 1000 nM | – | –
Cc1ncc2c(N)nc3cc(F)c(C(=O)N(Cc4ccncn4)c4ccnn4C)cc3n12 [Example 232] | 1000 to 10000 nM | 100 to 1000 nM | – | –
